Measured values: publication PMC12592420, “A mismatch in enzyme-redox partnerships underlies divergent cytochrome P450 activities between human hepatocytes and microsomes” (Communications Biology, 2025)
“And” between values parts separate entries of the source, which are not always exact repeats. Identical values can stand only once.

Tests used:
[1] = LogD pH 7.4, octanol/phosphate buffer; details: for LogD pH 7.4: at least one determination
rat hepatocytes = test: Free fraction in rat hepatocytes as surrogate for HH, equilibrium dialysis; format: in vitro ADME; details: fraction unbound, measured or estimated by in silico models of Fuinc
Caco-2 cells = test: Intrinsic permeability in Caco-2 cells with efflux inhibited; details: intrinsic (passive) permeability, at least one determination
[2] = CLint in NADH-supplemented human liver microsomes; details: for CLint scaled at 1 µM: human liver microsomes
Experimental: (§1) Calculation and scaling of CLint,u was done using the equation below and 45 mg of microsomal protein per gram of liver. HLMCLint,u=ln2/x1/t1/2(min)xmLincubation/mgmicrosomalproteinx45mgmicrosomalprotein/gliverx21gliver/kg/Fuinc

[3] = Free fraction in HLM incubation, equilibrium dialysis; format: in vitro ADME, human; details: fraction unbound, measured or estimated by in silico models of Fuinc
[4] = CLint in NADPH-supplemented human liver microsomes; details: for HLM_NADPH CLint: 1 µM, single determination; for HLM/HH (ratio of scaled CLint,u): NADPH-HLM average over HH average
Experimental: as §1

human hepatocytes (HH) = test: in vitro; details: for HH_CLint: single determination; for HH_CLint / HH_scaled_CLint,u: Fig. 4a
Experimental: (§2) Cryopreserved HH prepared from a mixed-gender pool of twenty donors (product X008000, lot EEO, BIOIVT), ten-donors (product S01205, lot MTJ, BIOIVT), ten donors (product S01205 lot LYB, BIOIVT) were utilised in the experiments. Cryopreserved HH were rapidly thawed in a water bath set at 37 °C and added to Leibovitz media that had been pre-warmed in the water bath. The suspension of cells was mixed gently and centrifuged at 40 × g for 4 min at room temperature. Excess media was removed, and the cells were re-suspended in 5 mL of fresh Leibovitz media. The cells were counted using an automated cell counter (Cellometer).

in vitro = details: human, hepatocytes
Experimental: as §2

[5] = Intrinsic permeability in Caco-2 cells with efflux inhibited; details: human, Caco-2
[6] = NADPH-HLM, individual determinations 1-3, Fig. 1
[7] = human, human liver microsomes + NADPH, pH 7.4, Scaled HLM CLint,u, NADPH-HLM, individual determinations 1-3, Fig. 1
[8] = human, human liver microsomes, pH 7.4, Scaled HLM CLint,u average, NADPH-HLM, average, Fig. 1
[9] = HH, individual determinations 1-3, Fig. 1
[10] = Scaled HH CLint,u average, HH, average, Fig. 1
[11] = Scaled HH CLint,u, HH, individual determinations 1-3, Fig. 1
[12] = human, human liver microsomes, pH 7.4, NADPH_HLM_scaled_CLint,u, Fig. 4a,d

Compound | LogD pH 7.4 [1] | fu_ratHH (rat hepatocytes) | fu_HLM [3] | HLM/HH (ratio of scaled CLint,u) ([4]; Fig. 1) | Scaled HLM CLint,u [4, 6] | CLint scaled at 1 µM [4, 7] | CLint scaled at 1 µM [4, 8] | Scaled HH CLint,u (human hepatocytes (HH); [9]) | CLint scaled (in vitro; [10]) | CLint scaled (in vitro; [11]) | also measured
AZ23 | 3.08 | 0.577 | 0.583 | – | – | – | – | – | – | – | Caco-2 Papp (Caco-2 cells): 66.417 10-6 cm/s; HLM_NADH CLint ([2]; 1 µM, single determination, Fig. 4a,d): 6.34 µL/min/mg; NADH_HLM_scaled_CLint,u ([2]; Fig. 4a,d): 10.2767 mL/min/kg; HLM_NADPH CLint ([4]; Fig. 4a,d): 56.607 µL/min/mg; NADPH_HLM_scaled_CLint,u ([4]; Fig. 4a,d): 91.7558 mL/min/kg; HH_CLint (human hepatocytes (HH); 1 µM): 3.309 uL/min/106 cells; HH_scaled_CLint,u (human hepatocytes (HH)): 14.4518 mL/min/kg
CCC1=C[C@@H]2CN(C1)Cc1c([nH]c3ccccc13)[C@@](C(=O)OC)(c1cc3c(cc1OC)N(C)[C@H]1[C@@](O)(C(=O)OC)[C@H](OC(C)=O)[C@]4(CC)C=CCN5CC[C@]31[C@@H]54)C2 [Vinorelbin] | – | – | – | 13.7107 | 640.935 mL/min/kg and 717.808 mL/min/kg | 436 mL/min/kg | 598 mL/min/kg | – | – | – | Scaled HH CLint,u (human hepatocytes (HH); human, hepatocytes, 1 µM): 48.4191 mL/min/kg; CLint scaled at 1 µM (in vitro; Scaled HH CLint,u): 38.9 mL/min/kg; CLint scaled at 1 µM (in vitro; Scaled HH CLint,u average): 43.6 mL/min/kg
CCN(C(=O)c1cc(F)ccc1Oc1nncnc1N1CCC2(C1)CN([C@H](CCCN(C)CCOC)C(C)C)C2)C(C)C [Bleximenib] | 0.74 | 0.794 | 0.721 | – | – | – | – | – | – | – | Caco-2 Papp (Caco-2 cells): 0.575 10-6 cm/s; HLM_NADPH CLint ([4]; Fig. 4a,d): 34.3 µL/min/mg; NADPH_HLM_scaled_CLint,u ([4]; Fig. 4a,d): 44.9563 mL/min/kg; HH_CLint (human hepatocytes (HH); 1 µM): 1.166 uL/min/106 cells; HH_scaled_CLint,u (human hepatocytes (HH)): 3.701 mL/min/kg
C[C@]12CCC(=O)C=C1CC[C@@H]1[C@@H]2[C@@H](O)C[C@@]2(C)[C@H]1CC[C@]2(O)C(=O)CO [hydrocortisone] | – | – | – | 2.834 | 57.5167 mL/min/kg and 51.9108 mL/min/kg | 54.9 mL/min/kg | 54.8 mL/min/kg | 16.444 mL/min/kg and 19.1349 mL/min/kg | 19.3 mL/min/kg | 22.4 mL/min/kg | –
CN1CCC(n2cc(Nc3nc(OC4(C)CC4)c4nc(-c5cncnc5)c(F)cc4n3)cn2)CC1 [AZ15] | 2.3 | 0.672 | 0.599 | – | – | – | – | – | – | – | Papp at 2 h, 10 µM [5]: 31.7 ×10⁻⁶ cm/s; microsomal CLint at 1 µM ([2]; human, human liver microsomes + NADH, pH 7.4): 15 µL/min/mg; CLint scaled at 1 µM ([2]; human, pH 7.4): 23.7 mL/min/kg; microsomal CLint at 1 µM ([4]; human, human liver microsomes + NADPH, pH 7.4): 100 µL/min/mg; CLint scaled at 1 µM [4, 12]: 158 mL/min/kg; hepatocyte CLint (in vitro; both, HH_CLint, 1 µM, single determination, Fig. 4a): 13.8 µL/min/1e6 cells; CLint scaled (in vitro; HH_scaled_CLint,u, Fig. 4a): 51.8 mL/min/kg
C[C@]12C=CC(=O)C=C1CC[C@@H]1[C@@H]2[C@@H](O)C[C@@]2(C)[C@H]1CC[C@]2(O)C(=O)CO [Prednisolone] | – | – | – | 2.917 | 38.7639 mL/min/kg | 40.8 mL/min/kg | 40.1 mL/min/kg | 12.4648 mL/min/kg and 14.0629 mL/min/kg | 13.7 mL/min/kg | 14.7 mL/min/kg | –
C[C@]12C=CC(=O)C=C1CC[C@@H]1[C@@H]2C(=O)C[C@@]2(C)[C@H]1CC[C@]2(O)C(=O)CO [Prednisone] | – | – | – | 0.4866 | 26.9421 mL/min/kg and 25.4228 mL/min/kg | 29.8 mL/min/kg | 27.4 mL/min/kg | 43.6458 mL/min/kg and 52.3108 mL/min/kg | 56.3 mL/min/kg | 72.8 mL/min/kg | –
O=C(O)Cc1ccccc1Nc1c(Cl)cccc1Cl [Diclofenac] | – | 0.539 | 0.841 | – | – | – | – | – | – | – | logD ([1]; octanol/phosphate buffer, pH 7.4): 1.07; Papp at 2 h, 10 µM [5]: 118 ×10⁻⁶ cm/s; CLint scaled at 1 µM ([2]; human, pH 7.4): 51.8 mL/min/kg; CLint scaled at 1 µM [4, 12]: 242 mL/min/kg; hepatocyte CLint at 1 µM (in vitro; both): 79.5 µL/min/1e6 cells; CLint scaled at 1 µM (in vitro; HH_scaled_CLint,u): 372 mL/min/kg
C[C@]12CC[C@H]3[C@@H](CCC4=CC(=O)CC[C@@]43C)[C@@H]1CC[C@@H]2O [Testosterone] | – | – | – | – | 250.062 mL/min/kg and 237.027 mL/min/kg | – | – | 1005.17 mL/min/kg and 1161.02 mL/min/kg | 1320 mL/min/kg | 1780 mL/min/kg | CLint scaled at 1 µM ([4]; human, microsomes, pH 7.4, Scaled HLM CLint,u average, NADPH-HLM, average, Fig. 1): 246 mL/min/kg; CLint scaled at 1 µM ([4]; human, microsomes, pH 7.4, Scaled HLM CLint,u, NADPH-HLM, individual determinations 1-3, Fig. 1): 251 mL/min/kg
